Laboratory results: patent US20030187064A1, “Use” (priority 2001, published 2003)
“And” between values parts separate entries of the source, which are not always exact repeats. Equal values may be shown once.

Assays:
[1] = Preserving effect in skin cream (oil-in-water); conditions: 250 or 2000 ppm; compared with methyl paraben
[2] = Preserving effect in shampoo; conditions: 2000 ppm; compared with a normally used preservative
[3] = Preserving effect in toothpaste; conditions: 2000 ppm; compared with sodium benzoate
[4] = Irritation effect of shampoo on the scalp; conditions: added to shampoo, 2000 ppm
[5] = Irritation effect of skin cream on the skin; conditions: added to skin cream, 250 or 2000 ppm
B. anthracis 204 = assay type: cell-based, Bacillus anthracis; conditions: 24 h at 30° C.
B. anthracis = assay type: cell-based, Bacillus anthracis; conditions: 24 h at 30° C.
B. anthracis 3.046 = assay type: cell-based, Bacillus anthracis; conditions: 24 h at 30° C.
Bacillus anthracis = assay type: cell-based
caries = test: Caries inhibition by toothpaste with APP; conditions: added to toothpaste, 2000 ppm
[6] = cited from earlier work
[7] = tests disclosed in the literature (Baute et al. 1993); cited from earlier work
[8] = Stability of APP in water; conditions: water at 24° C.
[9] = system: yeasts and moulds as well as catalase-positive bacteria; conditions: cited from earlier work
[10] = system: aerobic, Gram-negative bacteria; conditions: cited from earlier work
[11] = system: Gram-positive bacteria, yeasts, and moulds; conditions: cited from earlier work
moulds = conditions: pH of 5.5; cited from earlier work
bacteria = conditions: cited from earlier work

In the case of O=C1CO[C@H](CO)[C@@H](O)[C@@H]1O [AF, 1,5-anhydro-D-fructose], the “Preserving effect in skin cream” value [1] is reported as “as good preservatives as the commonly used preservative”, the “Preserving effect in shampoo” value [2] is reported as “as good preservatives as the commonly used preservative” and the “Preserving effect in toothpaste” value [3] is reported as “as good preservatives as the commonly used preservative”. For the same compound, the “Irritation effect on the scalp” value [4] was “no irritation effect” and the “Irritation effect on the skin” value [5] was “no irritation effect”.
For O=C1C[C@@H](CO)OC=C1O [APP, 1,5-Anhydro-4-deoxy-D-glycero-hex-1-en-3-ulose], the “APP level causing significant inhibition” value (B. anthracis 204) was 4000 ppm and 2000 ppm, the “APP level causing total inhibition” value (B. anthracis 204) was >4000 ppm and 4000 ppm and the “APP level causing significant inhibition” value (B. anthracis) was 2000 ppm. For the same compound, the “APP level causing total inhibition” value (B. anthracis) was 4000 ppm and >4000 ppm, the “APP level causing significant inhibition” value (B. anthracis 3.046) was 2000 ppm and the “APP level causing total inhibition” value (B. anthracis 3.046) was 3000 ppm. For the same compound, the “Sensitivity in well diffusion test (zones of inhibition)” value (Bacillus anthracis) was “sensitive”, the “Preserving effect in skin cream” value [1] was “as good preservatives as the commonly used preservative” and the “Preserving effect in shampoo” value [2] was “as good preservatives as the commonly used preservative”. The “Preserving effect in toothpaste” value [3] was “as good preservatives as the commonly used preservative”, the Inhibition of caries (caries) was “inhibited caries” and the Stability ([6]; pH 1.5-5.5) was “stable”. The half-life ([6]; pH 11-12.5) was 5 h, the “Function as an antibiotic” value [7] was “did not function satisfactorily as an antibiotic” and the Stability in water ([8]; 2 weeks) was “stable”. The Stability in water ([8]; after 2 months) was “completely disappears”, the “Irritation effect on the scalp” value [4] was “no irritation effect” and the “Irritation effect on the skin” value [5] was “no irritation effect”.
In the case of C/C=C/C=C/C(=O)O [Sorbic Acid], the Effective concentration [9] is given as 500-3000 ppm.
For O=S=O [Sulphur Dioxide], the “Effective concentration for inhibition” value [10] is given as 250-500 ppm and the Effective concentration [11] is given as 800-2000 ppm.
In the case of Propionic Acid and Propionate, the Concentration inhibiting moulds (moulds) is listed as 125 to 12500 ppm and the “Concentration necessary for inhibition of bacteria” value (bacteria) is listed as greater than 16000 ppm.
